Assay [1] deals with 22Rv1 cells. In words: Prostate cancer cell growth assay, single compound (CellTiter-Glo). The class given is cell-based. To be noted: Homo sapiens, 120 h, 22Rv1 cell growth, 5 days incubation. On the procedure:
(§1) Growth assays were done in triplicate and performed as follows.
(§2) 1. On Day 1, LNCaP and 22Rv1 cells were seeded in wells of a 96-well plate at a density of 3000 cells/well in 100 μL of culture media (RPMI 1640 medium supplemented with 10% fetal bovine serum and 1% Penicillin/Streptomycin). Cells were incubated overnight at 37° C. in a humidified atmosphere with 5% CO2.
(§3) 2. On Day 2, for single compound treatment studies, each compound was serially diluted 1:3 in DMSO to create a 9-point titration. A 3 μL aliquot of each dilution was added to 747 μL culture media and 100 μL were added to each triplicate well. Wells containing 0.2% DMSO-treated cells served as uninhibited controls.
(§4) In all studies, cells were incubated at 37° C. in a humidified atmosphere with 5% CO2 for 5 days.
(§5) 3. On Day 7, cell cultures were brought to room temperature for 30 minutes and 50 μL of reconstituted CellTiter-Glo Reagent was added to each well. Plates were shaken at room temperature for approximately 15 minutes Luminescent signal was quantified on a microplate reader.
(§6) 1. For single compound treatment study, all responses were expressed as % inhibition (the percentage inhibition compared to the average response of the DMSO-treated control wells). The data were analyzed by using nonlinear regression to generate IC50 values in Prism (GraphPad, La Jolla, Calif.). 95% confident interval (CI95) of the IC50 values were also calculated in Prism.

Assay [2] relates to LNCaP cells. The assay is described as above. The class given is cell-based. The settings on record: Homo sapiens, 120 h, 5 days incubation. Here is the method:
as §1, §2, §3, §4, §5, §6

Where [3] appears, read: n=3, read-out: IC50 (geometric mean).

pIC50: −log10 of the molar value. Like-named read-outs stand apart in the source and are kept apart here.

In the case of `CC(=O)O[C@H]1CC[C@@]2(C)C(=CC[C@@H]3[C@@H]2CC[C@]2(C)C(c4cccnc4)=CC[C@@H]32)C1` [Abiraterone acetate, abiraterone acetate, reference compound], the pIC50 in assay [1] (setting [3]) is 4.38; in assay [2] (setting [3]), 5.46.

As to `Cc1noc(C)c1-c1cnc2c(-c3ccc(C(=O)O)cc3)cn(C(C)(c3ccccn3)c3ccccn3)c2c1` [Compound I, 4-(1-(1,1-di(pyridin-2-yl)ethyl)-6-(3,5-dimethylisoxazol-4-yl)-1H-pyrrolo[3,2-b]pyridin-3-yl)benzoic acid], the pIC50 in assay [1] (setting [3]) is 7.47; in assay [1] (read-out: IC50), 7.47; in assay [2] (setting [3]), 7.37; in assay [2] (read-out: IC50), 7.37.

For the origin of these results see patent US11628176B2, “Combinational drug therapies” (Opna Bio SA, priority 2020, dated 2023).
